{"source": "patent US20080274121A1", "about": "“Inhibition of Angiogenesis by Mithramycin” (priority 2007, published 2008)", "key": {"PANC-1 cells [1]": {"tested_on": "PANC-1 cells", "experiment": "PANC-1 cells injected into the pancreas, survival and metastasis", "format": "in vivo, nude mice", "conditions": "BVZ 25 μg, MIT 0.10 mg/kg, or B+M; compared with PBS", "protocol": "FIG. 12. Prolonged survival of mice that received treatment with BVZ and MIT in xenograft models of human pancreatic cancer. PANC-1 cells were injected into the pancreas of nude mice (17 to 20 mice/group). The mice received treatment as described in FIG. 2. The entire experiment was terminated 120 days after tumor-cell injection. A, animal survival was monitored daily until termination of the experiment. Cum, cumulative. B, tumor growth in the pancreas and metastasis in the liver and/or other organs were evaluated and expressed as the incidence (%).\nStatistical analysis. Each experiment was performed independently at least twice with similar results; one representative experiment is presented. The significance of the in vitro data was determined using Student's t-test (two-tailed), whereas the significance of the in vivo data was determined using the two-tailed Mann-Whitney U test. For the in vivo experiments, overall survival was calculated by the method of Kaplan and Meier. Log rank test was used to compare the survival duration between groups. P≦0.05 was deemed significant.\nProlonged survival of xenograft models of human pancreatic cancer that received treatment with BVZ and MIT."}, "[2]": {"tested_on": "Sp1, VEGF, EGFR, PDGFA, CD31 (MVD)", "experiment": "Gene expression and MVD in H727 tumor tissues", "format": "in vivo, nude mice", "protocol": "FIG. 20. Upregulation of Sp1 and VEGF expression by treatment with BVZ and its reversal by treatment with MIT. The tumor tissues described in FIG. 4 were collected and processed as described in Materials and Methods. A. Frozen sections made from the tumors were used CD31 staining and MVD assessment. Representative photos of the stains are shown. B. Total protein lysates were harvested from tumor tissues, and the expression levels of Sp1, VEGF, EGFR and PDGFA protein were determined using Western blot analyses. Equal protein-sample loading was monitored by probing the same membrane filter with an anti-GAPDH antibody. C. The expression levels of Sp1, VEGF, EGFR and PDGFA were further determined by calculating the ratios between those genes and GAPDH.\nWestern blot analysis. Whole-cell lysates were prepared from human LGNET cell lines and tissues (21). Standard Western blotting was performed using polyclonal rabbit antibodies against human and mouse Sp1, VEGF, EGFR and PDGFA (Santa Cruz Biotechnology, Santa Cruz, Calif.) and the anti-rabbit IgG antibody, a horseradish peroxidase-linked F(ab′)2 fragment obtained from a donkey (Amersham, Arlington Heights, Ill.). Equal protein-sample loading was monitored by probing the same membrane filter with an antibody against glyceraldehyde-3-phosphate dehydrogenase (GAPDH) (21). The probe proteins were detected using the Amersham enhanced chemiluminescence system according to the manufacturer's instructions.\nImmunohistochemical analysis and quantification of tumor MVD. For CD31 staining, frozen tissue sections (5 μm thick) were fixed in acetone. Endogenous peroxidase in the specimens was blocked using 3% hydrogen peroxide in phosphate-buffered saline (PBS) for 12 minutes. […] For quantification of tumor MVD, vessels on each section were counted in five high-power fields (magnification, ×200 [×20 objective and ×10 ocular]) as described previously (40). […]"}, "PANC-1 cells [3]": {"tested_on": "PANC-1 cells", "experiment": "Viable cell count in vitro, PANC-1", "format": "cell-based, human", "conditions": "100 μg/ml BVZ", "protocol": "FIG. 14. Effects of treatment with BVZ and MIT on the growth of and gene expression in human pancreatic cancer cells in vitro. (A) BxPC3 and (B) PANC-1 cells were incubated for 1 to 5 days in a medium alone or a medium containing 100 μg/ml BVZ. The viable cells were counted every 24 hours. C, PANC-1 cells were incubated for 6 to 48 hours in a medium alone or a medium containing 100 μg/ml BVZ. Total protein lysates were harvested from the cell cultures, and the level of Sp1, EGFR, and VEGF protein expression was determined using Western blot analysis. Equal protein-sample loading was monitored by probing the same membrane filter with an anti-glyceraldehyde-3-phosphate dehydrogenase antibody (GAPDH). D and E, PANC-1 cells were treated with MIT at concentrations ranging from 0.1 to 1.2 μM for 24 and 48 hours. (D) Cytotoxicity was assessed using the MTT assay, and (E) the level of gene expression was determined using Western blot analysis. NS, nonspecific.\nEffects of treatment with BVZ and MIT on the growth of and gene expression in human pancreatic cancer cells. To further determine whether treatment with BVZ directly impacts gene expression in pancreatic cancer cells, we incubated PANC-1 and BxPC3 cells in a medium alone or a medium containing 100 μg/ml BVZ for 6 to 48 hours."}, "H727 cells": {"tested_on": "H727 cells", "experiment": "H727 carcinoid subcutaneous xenograft", "method": "(§1) H727 carcinoid tumor volume during treatment course in nude mouse xenograft model for various doses and administration routes of mithramycin.\n(§2) H727 and BON-1 cells were injected into the subcutis of nude mice (n=5). When tumors reached around 4 mm in diameter, the animals received different doses of MIT (0.10 [M-10], 0.20 [M-20], and 0.40 [M-40] mg/kg) via intraperitoneal injection twice a week. Tumors were measured once every week, and at each measurement, the mean±standard deviation (SD) tumor volume in the five mice in each group was calculated (A). […] This was one representative experiment of two with similar results.\n(§3) H727 and BON-1 cells were injected subcutaneously into nude mice. […] A. Tumors were measured once every week, and at each measurement, the mean±SD tumor volume in the five mice in each group was calculated. B. Mouse body weights were measured. The asterisks indicate the statistical significance (P<0.01) in a comparison between the treated and respective control groups. This was one representative experiment of two with similar results.\n(§4) H727 carcinoid cells were injected into the subcutis of groups of mice (n=5). When tumors reached 4 mm in diameter, animals received injections of PBS (controls), MIT (0.10, 0.20, or 0.40 mg/kg (s.c. or i.p.) twice a week. Tumors were measured once every week, and at each measurement, the mean±SD tumor volume in the five mice in each group was calculated.\n(§5) Mithramycin-A (MIT, 1 mg/vial crystal powder; lot 055K4011) was purchased from Sigma Chemical Co. (St. Louis, Mo.) and diluted in sterile water. BVZ (25 mg/ml; NDC 50242-060-01) from Genentech, Inc. (South San Francisco, Calif.) was purchased. For animal experiments, MIT (0.1 to 0.4 mg/kg body weight) and BVZ (25 to 100 μg/mouse) were administered by intraperitoneal or subcutaneous injections twice a week or as otherwise stated.\n(§6) Female athymic BALB/c nude mice were purchased from The Jackson Laboratory (Bar Harbor, Me.). The mice were housed in laminar flow cabinets under specific pathogen-free conditions and used when they were 8 weeks old.\n(§7) H727 and BON-1 tumor cells were injected into the subcutis of mice as described in the Materials and Methods. MIT treatment started when tumor sizes reached around 3-4 mm in diameters. […] Moreover, the residual tumors were harvested and angiogenesis was assessed by CD31 staining.\n(§8) Specifically, we injected H727 and BON-1 cells subcutaneously into nude mice. […] We also administered PBS injections to animals as controls.\n(§9) H727 and BON-1 cells were injected subcutaneously into nude mice and then administered treatment to them as described in FIG. 20."}, "[4]": {"experiment": "H727 carcinoid subcutaneous xenograft", "conditions": "BVZ; abstract does not name the model", "method": "as §1, §2, §3, §4, §5, §6, §7, §8, §9"}}, "data": [{"substance": "bevacizumab [BVZ]", "values": [{"measurement": "animal survival", "setting": "PANC-1 cells [1]", "value": "slightly increased survival rate"}, {"measurement": "expression of PDGFA, VEGF, and EGFR in H727 tumor tissue", "setting": "[2]; combination study (FIGS. 20B and 20C), Western blot", "value": "upregulated the expression of other proangiogenic molecules"}, {"measurement": "Sp1 expression in H727 tumor tissue", "setting": "[2]; combination study: PBS, BVZ, MIT, or B+M (FIG. 20)", "value": "increased expression of Sp1"}, {"measurement": "MVD", "setting": "[2]; combination study: low-dose BVZ or MIT alone (FIG. 20)", "value": "did not significantly reduce MVD"}, {"measurement": "cell growth in vitro", "setting": "PANC-1 cells [3]", "value": "did not affect the growth"}, {"measurement": "antitumor activity at low dose", "setting": "H727 cells; BVZ 25 μg, MIT 0.10 mg/kg, alone or combined, i.p. twice a week", "value": "marginal antitumor activity"}, {"measurement": "body weight", "setting": "H727 cells; BVZ alone", "value": "no discernable effects on body weight"}, {"measurement": "animal survival", "setting": "H727 cells; compared with PBS, 160 days", "value": "slightly increased survival rate"}, {"measurement": "human neuroendocrine tumor growth", "setting": "[4]", "value": "suppressed human neuroendocrine tumor growth in nude mice in a dose-dependent manner"}]}]}
